Experimental data published in US12553903B2, “Ivaltinostat combination therapy for treating pancreatic cancer” (CG Pharmaceuticals, Inc, priority 2023, dated 2026).

Key:
pancreatic cancer = details: 1250 mg/m^2 twice daily for 2 weeks followed by a 1-week rest, first line; cited from earlier work
[1] = test system: patients with advanced PDAC; test: Phase II safety and adverse events (NCI-CTCAE v4.0); assay type: in vivo; details: for patients with dose reduced due to occurrence of AEs: three of 24 patients
Experimental: (§1) Tumor evaluation was performed at baseline, at the end of every two cycles, and/or at the end of the trial. For patients with measurable/non-measurable lesions, the Response Evaluation Criteria in Solid Tumors version 1.1 was used to evaluate target/non-target lesions. Serial measurements of carbohydrate antigen 19-9 (CA19-9) levels were performed at baseline and at the beginning of each treatment cycle. Patients were followed up for survival until death or study closure. Safety evaluation included vital signs, adverse events (AEs), adverse drug reactions, serious AEs, ECG, and clinic al laboratory tests, which were performed on days 1, 8 and 15 each cycle. AEs were graded according to the Common Terminology Criteria for Adverse Events, version 4.0, by the National Cancer Institute.
(§2) Full analysis set (FAS), per protocol (PP), and safety set analysis were defined according to the study protocol. FAS was defined as patients who had been evaluated for tumor response at least once after baseline. The PP analysis set included patients who received at least 70% and more of the intended study drug throughout the treatment period and without any significant violation of the protocol.

[2] = test system: patients with unresectable pancreatic ductal adenocarcinoma (PDAC); assay type: in vivo
From the text: The present disclosure discloses a phase I/II study that evaluated the safety and efficacy of the histone deacetylase (HDAC) inhibitor, ivaltinostat, in combination with gemcitabine and erlotinib for advanced pancreatic ductal adenocarcinoma (PDAC). Patients diagnosed with unresectable, histologically confirmed PDAC who had not undergone previous therapy were eligible. […] In phase II, patients received a six-cycle treatment with the MTD of ivaltinostat determined in phase I. The primary endpoint was the objective response rate (ORR). Secondary endpoints included overall survival (OS), disease control rate (DCR), and progression-free survival (PFS). The MTD of ivaltinostat for the phase II trial was determined to be 250 mg/m^2. In phase II, 24 patients were enrolled. The median OS and PFS were 8.6 (95% confidence interval [CI]: 5.3-11.2) and 5.3 months (95% CI: 3.7-5.8). Of the 16 patients evaluated for response, ORR and DCR were 25.0% and 93.8% with a median OS/PFS of 10.8 (95% CI: 8.3-16.7)/5.8 (95% CI: 4.6-6.7) months.
One study disclosed herein was a single-arm phase I/II clinical study. The study evaluated the efficacy and safety of ivaltinostat in combination with gemcitabine and erlotinib for advanced pancreatic cancer. […] The DLT was assessed according to the National Cancer Institute Common Toxicity Criteria version 4.0. […]

[3] = test system: advanced pancreatic ductal adenocarcinoma (PDAC); test: Phase II efficacy (ORR, DCR, OS, PFS); assay type: in vivo, human
Experimental: Both ivaltinostat and gemcitabine were administered via the same protocol as that in the phase I study, until development of unacceptable toxicity or disease progression. The entire treatment period was six cycles and could be extended to 12 cycles if the patients wanted to continue the regimen and the principal investigator agreed. Tumor assessment was evaluated at the end of every two cycles. Dose reduction or delay could be applied for intolerant patients according to the study protocol.
The primary endpoint was the ORR, which was defined as the rate (%) of patients who had best tumor assessment with complete response (CR) or partial response (PR) during the treatment period. Secondary endpoints included disease control rate (DCR), OS, and progression-free survival (PFS). DCR was defined as the rate (%) of patients who had best tumor assessment with CR, PR, or stable disease (SD) during the treatment period. OS was defined as the time from the date of the first enrollment to the date of death from any cause. Patients who were still alive or withdrew at the date of cut off were censored. PFS was defined as the time from the date of the first enrollment to the date of tumor progression or to the date of death from any cause. Patients were followed up for survival until death, withdrawal, or study closure.
as §1
as §2, with “the protocol. The safety cohort included all patients who had received the study drug at least once.” for “the protocol.”
Statistical Analysis: To identify MTD and DLT, the 3+3 dose escalation design was utilized and based on the method of determining MTD described above. In total, 10 patients were enrolled in the phase I study. The estimated sample size for the phase II study after the determination of MTD was calculated based on Simon's 2 stage design25 with a reference of published data of 8.6% ORR from a phase III randomized controlled trial of gemcitabine and erlotinib combination therapy. Assuming a difference in response probability of study drug=20%, α=0.05, and statistical power=90%, the estimated minimally required sample size for phase II study based on binomial distribution probability may be 9 for initial stage and increase to a total of 24 patients if more than one patient had responded to the study drug during the initial stage. The safety analysis included all patients who had received a single dose of the study drug. The main efficacy analysis was based on the FAS population, defined as a group of patients who had received at least single dose of study drug and had at least one tumor response evaluation after the baseline assessment.

clinical = details: human, in vivo, iv
Experimental: The MTD was defined as the dose at which one or zero patients developed a DLT among six-patient cohort. Based on the 3+3 dose escalation design, each cohort consists of three or six subjects. If one in three subjects had experienced DLT in a specific dose, the dose was administered to an additional three subjects and a total of six patients were checked for the occurrence of DLT. If two or more subjects in any cohort had experienced a DLT, the previous dose was considered MTD, and the dose escalation ended. […] Gemcitabine and erlotinib were administered as fixed doses; gemcitabine (1000 mg/m^2 intravenously), and erlotinib (100 mg/day orally), whereas ivaltinostat was administered according to the dose level for each cohort. Each cycle consisted of 28 days. Both ivaltinostat and gemcitabine were administered on days 1, 8, and 15 and erlotinib was administrate d daily for each 28-day cycle.

advanced PDAC [4] = details: with gemcitabine; cited from earlier work
[5] = test system: germline BRCA-mutated metastatic pancreatic cancer; details: cited from earlier work
[6] = test system: PDAC after gemcitabine-based therapy; details: with bortezomib, seven patients enrolled; cited from earlier work
advanced PDAC [7] = details: combined with gemcitabine; cited from earlier work
[8] = test system: metastatic pancreatic cancer; details: first line; cited from earlier work
[9] = FAS analysis (n=16), with gemcitabine + erlotinib
[10] = Grade 3, treatment-related, phase II (n = 24)
[11] = Grade 4, treatment-related, phase II (n = 24)
[12] = Total grade 3 and 4, treatment-related, phase II (n = 24)

For `CCCCCOC(=O)Nc1nc(=O)n([C@@H]2O[C@H](C)[C@@H](O)[C@H]2O)cc1F` [Capecitabine, capecitabine], the efficacy and tolerability (pancreatic cancer) is given as “effective and tolerable”.
In the case of `C#Cc1cccc(Nc2ncnc3cc(OCCOC)c(OCCOC)cc23)c1` [erlotinib, reference compound], the “patients with dose reduced” value ([1]; phase II, 24 patients) is reported as “no patient received a reduced dose”.
With `Nc1ccn([C@@H]2O[C@H](CO)[C@@H](O)C2(F)F)c(=O)n1` [gemcitabine, reference compound] the “patients with dose reduced due to occurrence of AEs” value ([1]; phase II) was 12.5%.
In the case of `CN(C)CCCNC(=O)/C(=C/CCCCC(=O)NO)COc1cccc2ccccc12.O=P(O)(O)O` [ivaltinostat, (E)-N1-(3-(dimethylamino)propyl)-N8-hydroxy-2-((naphthalen-1-yloxy)methyl)oct-2-enediamide phosphate], the “dose-limiting toxicity (DLT)” value ([2]; human, in vivo, 28 day) is reported as “One DLT, a febrile neutropenia of grade 3”, the “maximum tolerable dose (MTD) / recommended dose for phase II” value ([2]; iv days 1, 8, 15 with gemcitabine 1000 mg/m2 iv and erlotinib 100 mg/day orally, 28-day cycle) is reported as 250 mg/m^2 and the “PRs, % of patients” value ([3]; FAS analysis (n=16)) is reported as 25%. The “PRs, number of patients” value ([3]; FAS analysis (n=16)) was 4, the “SDs, % of patients” value ([3]; FAS analysis (n=16)) was 68.8% and the “SDs, number of patients” value ([3]; FAS analysis (n=16)) was 11. For the same compound, the “median OS” value ([3]; FAS analysis (n=16)) was 10.8 months, the “median PFS” value ([3]; FAS analysis (n=16)) was 5.8 months and the DCR [3, 9] was 93.8%. For the same compound, the ORR [3, 9] was 25.0%, the DCR ([3]; PP analysis (n=10)) was 100% and the ORR ([3]; PP analysis (n=10)) was 30%. For the same compound, the “PRs, % of patients” value ([3]; PP analysis (n=10)) was 30%, the “PRs, number of patients” value ([3]; PP analysis (n=10)) was 3 and the “SDs, % of patients” value ([3]; PP analysis (n=10)) was 70%. For the same compound, the “SDs, number of patients” value ([3]; PP analysis (n=10)) was 7, the “median OS” value ([3]; PP analysis (n=10)) was 11.7 months and the “median PFS” value ([3]; PP analysis (n=10)) was 5.9 months. The “median OS” value ([3]; all patients (n=23), ivaltinostat 250 mg/m^2 + gemcitabine 1000 mg/m^2 + erlotinib 100 mg/day) was 8.6 months, the “median PFS” value ([3]; all patients (n=23), ivaltinostat 250 mg/m^2 + gemcitabine + erlotinib) was 5.3 months and the AUC(0-t) (clinical; 187.5 mg/m2) was 28300 ng·h/mL. For the same compound, the Cmax (clinical; 187.5 mg/m2) was 9550 ng/mL, the half-life (clinical; 187.5 mg/m2) was 7.3 h and the AUC(0-t) (clinical; 250 mg/m2) was 35100 ng·h/mL. The Cmax (clinical; 250 mg/m2) was 8060 ng/mL, the half-life (clinical; 250 mg/m2) was 5.7 h and the AUC(0-t) (clinical; 312.5 mg/m2) was 65400 ng·h/mL. For the same compound, the Cmax (clinical; 312.5 mg/m2) was 12800 ng/mL, the half-life (clinical; 312.5 mg/m2) was 6.6 h and the “Anemia, % of patients” value [1, 10] was “(16.7) %”. The “Anemia, number of patients” value [1, 10] was 4, the “Anorexia, % of patients” value [1, 10] was “(8.3) %” and the “Anorexia, number of patients” value [1, 10] was 2. For the same compound, the “Fatigue, % of patients” value [1, 10] was “(8.3) %”, the “Fatigue, number of patients” value [1, 10] was 2 and the “Febrile neutropenia, % of patients” value [1, 10] was “(8.3) %”. The “Febrile neutropenia, number of patients” value [1, 10] was 2, the “Neutropenia, % of patients” value [1, 10] was “(12.5) %” and the “Pneumonia, number of patients” value [1, 10] was 0. For the same compound, the “Thrombocytopenia, % of patients” value [1, 10] was “(16.7) %”, the “Thrombocytopenia, number of patients” value [1, 10] was 4 and the “Neutropenia, number of patients” value ([1]; Grade 3, treatment-related, phase II (n = 24), with gemcitabine + erlotinib) was 3. For the same compound, the “Anemia, number of patients” value [1, 11] was 0, the “Anorexia, number of patients” value [1, 11] was 0 and the “Fatigue, number of patients” value [1, 11] was 0. The “Febrile neutropenia, number of patients” value [1, 11] was 0, the “Neutropenia, % of patients” value [1, 11] was “(20.8) %” and the “Neutropenia, number of patients” value [1, 11] was 5. The “Pneumonia, % of patients” value [1, 11] was “(4.2) %”, the “Pneumonia, number of patients” value [1, 11] was 1 and the “Thrombocytopenia, % of patients” value [1, 11] was “(12.5) %”. For the same compound, the “Thrombocytopenia, number of patients” value [1, 11] was 3, the “Anorexia, % of patients” value [1, 12] was “(8.3) %” and the “Anorexia, number of patients” value [1, 12] was 2. For the same compound, the “Fatigue, % of patients” value [1, 12] was “(8.3) %”, the “Fatigue, number of patients” value [1, 12] was 2 and the “Febrile neutropenia, % of patients” value [1, 12] was “(8.3) %”. The “Febrile neutropenia, number of patients” value [1, 12] was 2, the “Pneumonia, % of patients” value [1, 12] was “(4.2) %” and the “Pneumonia, number of patients” value [1, 12] was 1. The ADR decreased appetite ([1]; phase II, 24 subjects) was 11 events, the “ADR decreased platelet count” value ([1]; phase II, 24 subjects) was 15 events and the ADR nausea ([1]; phase II, 24 subjects) was 10 events. The ADR rash ([1]; phase II, 24 subjects) was 11 events, the ADR vomiting ([1]; phase II, 24 subjects) was 10 events and the “ADRs with grade 3 or 4 severity” value ([1]; phase II, 24 subjects) was 26. For the same compound, the AEs reported ([1]; phase II, 24 subjects) was 218, the “grade 5 (death) events” value ([1]; phase II, 24 subjects) was “no grade 5 (death) events” and the “adverse drug reactions (ADRs)” value ([1]; phase II, all 24 subjects) was 114. The “patients with dose reduced due to occurrence of AEs” value ([1]; phase II) was 12.5%.
In the case of `Nc1ccccc1NC(=O)c1ccc(CNc2nccc(-c3cccnc3)n2)cc1` [mocetinostat], the “clinical activity and toxicity” value (advanced PDAC [4]) is given as “showed only limited clinical activity”.
For `O=C(c1cc(Cc2n[nH]c(=O)c3ccccc23)ccc1F)N1CCN(C(=O)C2CC2)CC1` [olaparib], the “median PFS” value ([5]; maintenance after ≥16 weeks of platinum-based therapy, gBRCA mutations, placebo 3.8) is listed as 7.4 months and the “HR for PFS vs. placebo” value ([5]; p=0.004) is listed as 0.53.
For `Cc1[nH]c2ccccc2c1CCNCc1ccc(/C=C/C(=O)NO)cc1` [panovinostat], the study outcome [6] is listed as “suspended due to lack of response and toxicity”.
For `CC(=O)Nc1ccc(C(=O)Nc2ccccc2N)cc1` [tacedinaline], the “clinical benefit vs gemcitabine alone” value (advanced PDAC [7]) is given as “no advantage over gemcitabine alone”.
For FOLFIRINOX, the “median progression-free survival (PFS)” value [8] is listed as 6.4 months and the “overall survival (OS)” value [8] is listed as 11.1 months.
